Test results from a melting point compilation (Tetko et al.; mined from patent text by program, amines drawn as free bases though some values may be those of a salt).

In the case of CC(=O)Nc1nc(O)c2cc(C=Cc3ccc(C(=O)OC(C)=O)cc3)cnc2n1, the melting point was > 300 °C. With CCCCn1c(=O)c(NC(=O)Nc2c(C(C)C)cc(CO)cc2C(C)C)c(-c2cccc(OC)c2)c2cccnc21 the melting point was 122 to 123 °C. Compound CC1(C)Oc2ccsc2C(NC(=O)c2ccc(C(F)(F)F)cc2)C1O (stereo not drawn) has a melting point of 162 to 163 °C. Work on CC(C)(C)c1cc(C(=O)COc2ccc(C(=O)O)c(O)c2)cc(C(C)(C)C)c1O yielded a melting point of 164 to 165 °C. With Cc1cc(Cl)cc(C(=O)c2[nH]c(=O)[nH]c(=O)c2C(C)C)c1 the melting point was 254 to 255 °C. ON=Cc1cn2c(n1)COc1ccccc1-2 gave a melting point of 232 to 233 °C. Compound COC(=O)c1cccc(-c2ccnc3c(C(=O)c4cccs4)cnn23)c1 has a melting point of 180 to 184 °C. With Nc1ccc(C(=O)O)c([N+](=O)[O-])c1 the melting point was 230 °C. Cn1cc(-c2ccccc2)c(=O)c(-c2ccc(Cl)cc2)c1 gave a melting point of 142 °C. For CCOC=C1C(=O)N(c2cccc(Cl)c2)c2ccccc21, the melting point was 132 to 134 °C. CC(C)(C)c1cc(Sc2nnc(NC(=N)N)s2)cc(C(C)(C)C)c1O gave a melting point of 248 to 249 °C. With Cc1cc(Cl)ccc1Cn1nc(C(C)(C)O)c2ccccc21 the melting point was 72 to 74 °C. Compound COc1ccc(S(=O)(=O)N2C(=O)C(c3cc(C)ccc3OC)(N3C[C@H](O)C[C@H]3C(=O)N(C)C)c3cc(Cl)ccc32)c(OC(F)(F)F)c1 (stereo partly drawn) has a melting point of 192 to 193 °C. With Cc1nnc(S(=O)c2c(C)cccc2C)o1 (stereo not drawn) the melting point was 79 to 80 °C. For Cn1nc(-c2cnc3[nH]cc(C(=O)NC4CCS(=O)(=O)C4)c3n2)c2ccc(Cl)cc21 (stereo not drawn), the melting point was 383 to 385 °C. In the case of CC(C)(Sc1ccc(-n2cncn2)nn1)C(O)(Cn1cncn1)c1ccc(F)cc1F (single isomer, unassigned; (+)), the melting point was 226 to 227 °C. Compound CC(c1ncncc1Cl)C(O)(Cn1cncn1)c1ccc(F)cc1F (stereo not drawn) has a melting point of 128 °C. For O=[N+]([O-])c1ccc2c(c1)OC(COc1nccnc1N1CCNCC1)CO2 (stereo not drawn), the melting point was 133 to 135 °C. In the case of O=C(NC1CCCCC1)c1c(O)c2cc(Cl)ccc2n(Cc2ccccc2)c1=O, the melting point was 158 °C. In the case of COc1cc(N)c(Cl)cc1C(=O)NCC1CCN(CCCOc2ccccc2)CC1, the melting point was 132 to 134 °C. CCCc1c(C(=O)C(C)C)c2ccc(C(N)=O)cc2n1Cc1ccc(Br)cc1Cl gave a melting point of 199 to 201 °C. Compound COC(=O)N1CCC(n2c(=O)[nH]c3cc(Cl)ccc32)C(C)C1 (stereo not drawn) has a melting point of 196 °C. CCCCOC(=O)CNC(=O)c1nc2ccc(OCCCC)cc2cc1OCc1ccccc1 showed a melting point of 99 to 101 °C. Cc1c(N)cc(Cl)cc1N gave a melting point of 75 to 77 °C. CN1Cc2c(-c3nc(C4CC4)no3)ncn2-c2cccc(Cl)c2C1=O gave a melting point of 183 to 184 °C. In the case of O=C(O)c1ccc(C#Cc2ccc(OCCCO)c(C34CC5CC(CC(C5)C3)C4)c2)cc1, the melting point was 290 to 292 °C. For Cc1ccc(S(N)(=O)=O)cn1, the melting point was 151 to 155 °C. For C=CNC(=O)C(C)(Cc1ccccc1)S(=O)(=O)CCCl (stereo not drawn), the melting point was 107 to 108 °C. Compound CC(C)NCCNC(=O)c1ccc(OCc2ccc(-c3ccccc3)cc2)cc1 has a melting point of 150 to 154 °C. Work on CC(Oc1ccnc2ccccc12)C(=O)Nc1ccc(Cl)cc1 (stereo not drawn) yielded a melting point of 170 to 172 °C. Compound CCOC(=O)C(C)(C)Oc1ccc(CCNC(=O)CCc2cc(C(C)(C)C)c(O)c(C(C)(C)C)c2)cc1 has a melting point of 168 to 171 °C. With O=c1[nH]c2cc3[nH]c(=O)oc3cc2[nH]1 the melting point was > 360 °C. For O=NSC1(C2OCCCO2)CCCCC1, the melting point was 34 to 36 °C. Compound Cc1cccc(C)c1C(=O)Oc1cc([N+](=O)[O-])cc([N+](=O)[O-])c1O has a melting point of 163 to 165 °C. CCN(C)c1nn(C)c2ncc(-c3ccncc3)cc12 showed a melting point of 182 to 197 °C. C#CCOc1cc(O)c2c(c1)OC(C)(C)CC2=O gave a melting point of 122 to 124 °C. With CN1Cc2ccccc2C(Oc2ccc([N+](=O)[O-])cc2)C1 (stereo not drawn) the melting point was 142 to 143 °C. Work on CN(c1cccc2cc(-c3nc(CCl)cs3)[nH]c12)S(=O)(=O)c1cccs1 yielded a melting point of 153 to 154 °C. Work on CC(=NO)C1CCC2C3CC=C4C(C)(C)C(=O)C(C#N)CC4(C)C3CCC12C (stereo not drawn) yielded a melting point of 190 to 192 °C. With Cc1cccc(COc2cccc(OCc3ccc4ccccc4n3)c2)c1OCC(=O)O the melting point was 154 to 157 °C. Work on Cc1cc(Cc2cnc(NCCCN(Cc3ccccc3)c3ccccn3)[nH]c2=O)cnc1C yielded a melting point of 95 to 99 °C. Compound CC(=O)O[C@H]1[C@H](OC(C)=O)[C@@H](CCl)OC[C@@H]1OC(C)=O has a melting point of 129 to 131 °C. With Cc1cc2c(cc1O)C(C)(C)CC1(CC(C)(C)c3cc(OCCCO)c(C)cc3O1)O2 (stereo not drawn) the melting point was 175 to 177 °C. In the case of N#CCCNC(=O)c1cccc(-c2cccc3nn(Cc4ccccc4F)cc23)c1, the melting point was 165 to 166 °C. For Cc1onc(NS(=O)(=O)c2ccccc2-c2ccc(-c3ncco3)cc2Cn2ccc(C(F)(F)F)n2)c1C, the melting point was 89 to 99 °C. CCSC1(c2cc(F)cc(OCc3ccc4c(ccc(=O)n4C)c3)c2)CCOCC1 showed a melting point of 68 to 72 °C. CNc1nc(C)c(-c2cccnc2)s1 showed a melting point of 152 to 153 °C. O=C(O)c1cc2c(c(-c3ccccc3)c1)C(=O)OC2=S gave a melting point of 237 to 247 °C. CC(C)(C)c1ocnc1C=C(O)C(=O)O gave a melting point of 153 to 155 °C. In the case of CCCCCCCC/C=C\c1ccccc1/C=C/C(C)=C/C=C/C(C)=C/C(=O)O, the melting point was 103 to 105 °C. Compound NS(=O)(=O)c1ccc(-n2nc(CCCNC(=O)Nc3ccc(Cl)cc3)cc2-c2ccccc2)cc1 has a melting point of 103 to 110 °C. In the case of NC(=O)C1(Nc2ccccc2)CCN(C2CCCc3ccccc32)CC1 (stereo not drawn), the melting point was 186 to 187 °C. CCc1c(CCC(=O)O)c[nH]c1C=O gave a melting point of 128 to 134 °C. For CCn1nnc(-c2ccc(CN3CCC(C(O)(c4ccc5c(c4)OC(F)(F)O5)c4ccc5c(c4)OC(F)(F)O5)CC3)cc2)n1, the melting point was 79 to 81 °C. O=C(Nc1ccc(Cl)c(C(F)(F)F)c1)N[C@H]1CC[C@H](Oc2ccc(C(F)(F)F)cn2)CC1 gave a melting point of 176 to 178 °C. In the case of O=C1c2c(cc(O)c(Cl)c2Cl)CC1C1CCCC1 (stereo not drawn), the melting point was 222 to 225 °C. For CN1C(=S)N(c2ccc(C#N)c(C(F)(F)F)c2)C(=N)C1(C)C, the melting point was 173 to 174 °C. Work on O=C(Nc1sc2c(c1S(=O)(=O)O)CCCC2)C1CC1 yielded a melting point of 225 to 230 °C. O=C(O)c1ccc(-c2csc(-c3ccccc3)n2)cc1 showed a melting point of 245 to 248 °C. With Fc1cc(F)c2c(c1)C[C@@H](n1c(CN3CCOCC3)c[nH]c1=S)CC2 the melting point was 182 to 184 °C. CC(=O)c1ccc(-c2ccc(F)cc2)c(F)c1 gave a melting point of 80 to 82.5 °C. With COc1ccc2c3c1OC1C(O)C(CO)(CO)CC4C(C2)N(C)CCC341 (stereo not drawn) the melting point was > 265 °C. For O=C(CCN1CCCC1)Nc1ccc2c(c1)C(=O)c1cc(NC(=O)CCN3CCCC3)ccc1C2=O, the melting point was 233 °C. For O=C1c2ccccc2C(=O)C1(O)c1cc(F)ccc1O, the melting point was 189 to 193 °C. Compound CCOC(=O)CCCCc1cccc(-c2nc(=O)c3ccccc3s2)n1 has a melting point of 87 to 88 °C. Compound CC(C)Oc1cc(F)nc(N)n1 has a melting point of 66 to 68 °C. Work on OC1CSC(Oc2cccc3ccoc23)C(O)C1O (stereo not drawn) yielded a melting point of 160 °C. Cc1ccc(C(=O)Nc2cc3c(cc2N)C(C)(C)CCC3(C)C)cc1 gave a melting point of 180 °C. For Cc1cc(C=NNC(N)=S)ncc1N, the melting point was 235 to 236 °C. COc1cc(N)c(Cl)cc1C(=O)NCC1CCN(CCCSc2ccccc2)CC1 showed a melting point of 146 to 148 °C. With Oc1cncc(Oc2ccccc2)c1 the melting point was 107 °C. Compound Cc1cccc2c1N(CC(=O)N1CC3CCC(CC3)C1)C(=O)C(NC(=O)Nc1cccc(Cc3nnn[nH]3)c1)N=C2c1ccccc1F (stereo not drawn) has a melting point of 154 to 168 °C. With O=C1CSc2ccc3ccccc3c2N1 the melting point was 195 to 196 °C. In the case of CC(C)(C)C(=O)OCn1nnc(-c2cc(Br)ccc2NC(=O)c2cccc(S(=O)(=O)N3CCOCC3)c2)n1, the melting point was 210 to 212 °C. In the case of COc1ccc([C@@H]2CCc3cc(OC)ccc3[C@@H]2Cn2ccnc2)cc1 (relative stereo), the melting point was 114 °C. Work on CN(C)C(=O)Nc1ccc2c(c1)C(CN1CCC(c3ccc(F)cc3)CC1)CC2 (stereo not drawn) yielded a melting point of 141 to 144 °C. With CN1C(=O)c2ccc(-c3ccc(Cl)cc3)cc2C1=O the melting point was 131 to 132 °C. For COc1ccc(Nc2cnc3c(NCc4ccccc4)nc(NCCO)nc3c2)cc1OC, the melting point was 149 to 150 °C. With Fc1ccc(Nc2ncnc3ccc(-n4cncn4)cc23)c(F)c1 the melting point was > 250 °C. Work on Clc1ccc2[nH]c(Cc3ccccc3)c(C3=NCCN3)c2c1 yielded a melting point of 299 to 300 °C. For COc1cc(N2CCC(N3CCN(C)CC3)CC2)ccc1Nc1ncc2ccc(Br)n2n1, the melting point was 171 to 173 °C. Work on CCCn1cnc2c1c(=O)n(CCCC(C)(C)O)c(=O)n2C yielded a melting point of 96 to 98 °C. In the case of Cn1cc(-c2ccc(C(=O)N3Cc4cccn4Cc4ccccc43)c(Cl)c2)cn1, the melting point was 105 to 109 °C. Work on Cc1noc(C)c1C(C)(O)c1ccoc1 (stereo not drawn) yielded a melting point of 88 to 90 °C. Work on CCn1c(=O)c(-c2c(Cl)cccc2Cl)cc2cnc(N)nc21 yielded a melting point of 207 to 209 °C. c1cn(-c2ccnc(-n3ccnc3)n2)cn1 gave a melting point of 131 to 132 °C. Compound Oc1ccc(C2CC(c3ccccc3)=NN2c2ccccc2)cc1 (stereo not drawn) has a melting point of 144 to 145 °C. Work on NSc1nc(-c2ccccc2Cl)ns1 yielded a melting point of 143 to 145 °C. Cc1scnc1-c1ccc(-c2cc(C(F)(F)F)nn2-c2ccc(S(C)(=O)=O)c(F)c2)cc1 gave a melting point of 170 to 172 °C. With CC(C)Oc1cccc(CC(=O)OCc2c(-c3ccccc3)c3cc(Cl)ccc3c(=O)n2C)c1 the melting point was 130 to 132 °C. Work on CS(=O)c1cccc(-n2cnc(-c3ccc(F)cc3)c2-c2ccncc2)c1 (stereo not drawn) yielded a melting point of 233 to 234 °C. Compound CCc1onc(-c2ccccc2)c1C(=O)NCCCN1CCN(c2ccc(F)cc2OCC(F)(F)F)CC1 has a melting point of 115 to 117 °C. Compound CCc1cc(-c2ccc(Cl)cc2)nc2c(C(=O)Nc3cccc(S(=O)(=O)NC(C)(C)CO)c3)cnn12 has a melting point of 239 to 240 °C. For CCC(CC(=O)NC(=O)OC(C)(C)C)Nc1ccccc1 (stereo not drawn), the melting point was 105 to 106 °C. Work on COC(=O)c1cncnc1NCc1ccncc1 yielded a melting point of 111 to 112 °C. Compound COC(=O)C(c1ccc(Br)cc1)(c1ccc(Br)cc1)c1ncc[nH]1 has a melting point of 135 °C. With O=C(O)c1ncn2c1CN=C(c1ccccc1Br)c1cc(F)ccc1-2 the melting point was 280 to 285 °C. In the case of CC1(c2ccc(N)cc2)C(=O)Nc2cc(Cl)ccc2C1=O (stereo not drawn), the melting point was 155 to 156 °C.
